Laboratory results published in patent publication US4017540A, “Method of use, composition, and compounds” (The Upjohn Company, priority 1972, dated 1977).
Several values for one entry are separate records, joined by “and”; a condition that tells them apart may be missing. Equal values may be shown once. Entries after “also recorded” stand apart in the source; their conditions may differ.

Tests used:
[1] = system: insects and mites; test: insecticidal and miticidal activity (general); conditions: in vivo
[2] = anorexigenic activity; conditions: in vivo
[3] = system: parasitic worms; test: anthelmintic activity (general; sheep); conditions: in vivo
[4] = system: Nematodirus; test: Example 31 lamb test, Nematodirus; assay type: in vivo; conditions: for average number of Nematodirus remaining: group average; for total number of Nematodirus remaining: group total; for mean percentage efficacy against Nematodirus: vs unmedicated controls
Experimental: (§1) At both dosages, the compound p-toluoyl chloride phenylhydrazone was efficacious against Haemonchus, Ostertagia, Nematodirus, Trichostrongylus, Strongyloides, Oesophagostomum, and Cooperia.
(§2) In th comprehesive test with 100 mg./kg. and 200 mg./kg. dosages of p-toluoyl chloride phenylhydrazone, five lambs were used for each dosage level, and five lambs were maintained as unmedicated controls. Daily egg counts in the feces were made before and after treatment. The lambs were killed and examined post-mortem for worms present 11 days after treatment. Helminth populations were recovered, enumerated and identified.
(§3) The mean percentage efficacy against specific helminths in the test lambs was calculated by subtracting the average number of the helminths observed in the treated lambs, postmortem, from the average number observed in the unmedicated controls, post-mortem; dividing the remainder by the latter average number; and multiplying by 100. Accordingly, the means percentage efficacies against the various helminths identified in the test lambs were calculated and found to be as follows: […]

[5] = system: Bunostomum; test: Example 31 lamb test, Bunostomum; assay type: in vivo; conditions: 200 mg./kg.
Experimental: as §1, §2, §3

[6] = system: Trichuris ovis; test: preliminary test with worm infested lambs, Trichuris; assay type: in vivo; conditions: one lamb, 400 mg./kg. oral
Experimental: (§4) A preliminary test with lambs was effected by maintaining worm infested lambs under satisfactory environmental conditions with feed and water available ad libitum. Pretreatment fecal examinations were made in order to characterize and evaluate the parasitism of each animal. The presence of helminth ova was recorded in terms of the number of eggs per gram of feces.
(§5) On the day of treatment, each lamb was weighed and a dosage for it was calculated in terms of milligrams of compound per kilogram of body weight. The calculated dosage of compound was pulverized and packed in a gelatin capsule for oral administration.

[7] = system: Nematodirus; test: preliminary test with worm infested lambs, Nematodirus; assay type: in vivo; conditions: one lamb
Experimental: as §4, §5

[8] = system: Cooperia; test: Example 31 lamb test, Cooperia; assay type: in vivo; conditions: for average number of Cooperia remaining: group average; for total number of Cooperia remaining: group total; for mean percentage efficacy against Cooperia: vs unmedicated controls
Experimental: as §1, §2, §3

[9] = system: Ostertagia; test: preliminary test with worm infested lambs, Ostertagia; assay type: in vivo; conditions: one lamb
Experimental: as §4, §5

[10] = system: helminths; test: Example 31 lamb test, helminths overall; assay type: in vivo; conditions: 100 mg. and 200 mg. per kg
Experimental: as §1, §2, §3

[11] = system: Haemonchus; test: preliminary test with worm infested lambs, Haemonchus; assay type: in vivo; conditions: one lamb, 300 mg./kg. oral
Experimental: as §4, §5

[12] = system: Oesophagostomum; test: preliminary test with worm infested lambs, Oesophagostomum; assay type: in vivo; conditions: one lamb, 300 mg./kg. oral
Experimental: as §4, §5

[13] = system: Trichostrongylus; test: preliminary test with worm infested lambs, Trichostrongylus; assay type: in vivo; conditions: one lamb
Experimental: as §4, §5

[14] = system: tapeworm Moniezia; test: Example 31 lamb test, tapeworm; assay type: in vivo
Experimental: as §1, §2, §3

[15] = system: lambs; conditions: in vivo
Experimental: as §2, with “At both dosages, the compound p-toluoyl chloride phenylhydrazone was efficacious against Haemonchus, Ostertagia, Nematodirus, Trichostrongylus, Strongyloides, Oesophagostomum, and Cooperia. […] In” for “In”

[16] = system: Trichostrongylus; test: Example 31 lamb test, Trichostrongylus; assay type: in vivo; conditions: for average number of Trichostrongylus remaining: group average; for total number of Trichostrongylus remaining: group total; for mean percentage efficacy against Trichostrongylus: vs unmedicated controls
Experimental: as §1, §2, §3

[17] = system: Trichuris; test: Example 31 lamb test, Trichuris; assay type: in vivo; conditions: for average number of Trichuris remaining: group average; for total number of Trichuris remaining: group total
Experimental: as §2, §3

[18] = system: helminths; test: preliminary test with worm infested lambs, helminths overall; assay type: in vivo; conditions: one lamb
Experimental: as §4, §5
In this preliminary test one lamb received 200 mg. p-toluoyl chloride phenylhydrazone per kilogram of body weight - a total dosage of 5.0 g.

[19] = system: Oesophagostomum; test: Example 31 lamb test, Oesophagostomum; assay type: in vivo; conditions: for average number of Oesophagostomum remaining: group average; for total number of Oesophagostomum remaining: group total; for mean percentage efficacy against Oesophagostomum: vs unmedicated controls
Experimental: as §1, §2, §3

[20] = system: Strongyloides; test: preliminary test with worm infested lambs, Strongyloides; assay type: in vivo; conditions: one lamb
Experimental: as §4, §5

[21] = system: Haemonchus; test: Example 31 lamb test, Haemonchus; assay type: in vivo; conditions: for average number of Haemonchus remaining: group average; for total number of Haemonchus remaining: group total; for mean percentage efficacy against Haemonchus: vs unmedicated controls
Experimental: as §1, §2, §3

[22] = system: Strongyloides; test: Example 31 lamb test, Strongyloides; assay type: in vivo; conditions: for average number of Strongyloides remaining: group average; for total number of Strongyloides remaining: group total; for mean percentage efficacy against Strongyloides: vs unmedicated controls
Experimental: as §1, §2, §3

[23] = system: Ostertagia; test: Example 31 lamb test, Ostertagia; assay type: in vivo; conditions: for average number of Ostertagia remaining: group average; for total number of Ostertagia remaining: group total; for mean percentage efficacy against Ostertagia: vs unmedicated controls
Experimental: as §1, §2, §3

## O=[N+]([O-])c1ccc(NN=C(Cl)c2ccccc2)c([N+](=O)[O-])c1 [Benzoyl chloride (2,4-dinitrophenyl)hydrazone, reference compound]
[1]
  insecticidal and miticidal activity: relatively inactive

## ClC(=NNc1cc(Cl)ccc1Cl)c1ccccc1 [benzoyl chloride (2,5-dichlorophenyl)hydrazone]
[2]
  anorexigenic activity: have anorexigenic activity

## ClC(=NNc1ccccc1)c1ccccc1 [benzoyl chloride phenylhydrazone]
[3]
  anthelmintic activity: effective against worms; also recorded: efficacious anthelmintic agents

## ClC(=NNc1c(Cl)cc(Cl)cc1Cl)c1ccc(Cl)cc1 [p-chlorobenzoyl chloride (2,4,6-trichlorophenyl)hydrazone]
[2]
  anorexigenic activity: anorexigenic activity

## Cc1ccc(C(Cl)=NNc2ccccc2)cc1 [p-toluoyl chloride phenylhydrazone]
[4]; 100 mg. and 200 mg. per kg
  efficacy against Nematodirus (in words): efficacious
[4]; 100 mg./kg.
  number of Nematodirus recovered at necropsy, individual lamb: 0
  average number of Nematodirus remaining: 0
  total number of Nematodirus remaining: 0
  mean percentage efficacy against Nematodirus: 100%
[4]; 200 mg./kg.
  number of Nematodirus recovered at necropsy, individual lamb: 0
  average number of Nematodirus remaining: 0
  total number of Nematodirus remaining: 0
[4]; 200 mg./kg., *= only one lamb infected
  mean percentage efficacy against Nematodirus: 100%
[5]
  number of Bunostomum recovered at necropsy, individual lamb: 2 and 1
[5]; group average
  average number of Bunostomum remaining: 1.5
[5]; group total
  total number of Bunostomum remaining: 3
[5]; vs unmedicated controls
  mean percentage efficacy against Bunostomum: 97%
[6]
  activity against Trichuris ovis: lack of noticeable activity
[7]; 300 mg./kg. oral
  activity against Nematodirus (egg counts and necropsy): established activity
[7]; 400 mg./kg. oral
  activity against Nematodirus: Activity
[3]
  anthelmintic activity: effective against worms; also recorded: efficacious anthelmintic agents
[8]; 100 mg. and 200 mg. per kg
  efficacy against Cooperia (in words): efficacious
[8]; 100 mg./kg.
  number of Cooperia recovered at necropsy, individual lamb: 0
  average number of Cooperia remaining: 0
  total number of Cooperia remaining: 0
[8]; 100 mg./kg., *= only one lamb infected
  mean percentage efficacy against Cooperia: 100%
[8]; 200 mg./kg.
  number of Cooperia recovered at necropsy, individual lamb: 0
  average number of Cooperia remaining: 0
  total number of Cooperia remaining: 0
  mean percentage efficacy against Cooperia: 100%
[9]; 300 mg./kg. oral
  activity against Ostertagia (egg counts and necropsy): established activity
[9]; 400 mg./kg. oral
  activity against Ostertagia: Activity
[10]
  overall anthelmintic activity in lambs: excellent activity
[11]
  activity against Haemonchus (egg counts and necropsy): established activity
[12]
  activity against Oesophagostomum (egg counts and necropsy): established activity
[13]; 300 mg./kg. oral
  activity against Trichostrongylus (egg counts and necropsy): established activity
[13]; 400 mg./kg. oral
  activity against Trichostrongylus: Activity
[14]; 100 mg. and 200 mg. per kg
  activity against the tapeworm Moniezia: activity against the tapeworm Moniezia was observed
[14]; 200 mg./kg.
  activity against tapeworm: positive
  number of tapeworm recovered at necropsy, individual lamb: 0
[14]; 200 mg./kg., group average
  average number of tapeworm remaining: 0
[14]; 200 mg./kg., group total
  total number of tapeworm remaining: 0
[15]
  signs of toxicity to the lambs: absence of signs of toxicity
[16]; 100 mg. and 200 mg. per kg
  efficacy against Trichostrongylus (in words): efficacious
[16]; 100 mg./kg.
  number of Trichostrongylus recovered at necropsy, individual lamb: 0 and 15
  average number of Trichostrongylus remaining: 4
  total number of Trichostrongylus remaining: 15
  mean percentage efficacy against Trichostrongylus: 98.7%
[16]; 200 mg./kg.
  number of Trichostrongylus recovered at necropsy, individual lamb: 0
  average number of Trichostrongylus remaining: 0
  total number of Trichostrongylus remaining: 0
  mean percentage efficacy against Trichostrongylus: 100%
[17]; 100 mg./kg.
  number of Trichuris recovered at necropsy, individual lamb: 31 and 83 and 3 and 37 and 4
  average number of Trichuris remaining: 32
  total number of Trichuris remaining: 158
[17]; 100 mg./kg., vs unmedicated controls
  mean percentage efficacy against Trichuris: 0%
[17]; 200 mg./kg.
  number of Trichuris recovered at necropsy, individual lamb: 6 and 64 and 28 and 56
  average number of Trichuris remaining: 39
  total number of Trichuris remaining: 154
[18]; 200 mg./kg. oral
  effectiveness of the dosage: somewhat effective
  helminth eggs in the feces: significantly fewer helminth eggs in the feces
  numbers of helminths at necropsy: reduced numbers of helminths at necropsy
[18]; 300 mg./kg. oral
  helminth egg counts: reduced significantly (except Trichuris)
  worm infestation on necropsy: low
[18]; 400 mg./kg. oral
  egg counts: significantly lowered egg counts
  worms at necropsy: absence of worms
[19]; 100 mg. and 200 mg. per kg
  efficacy against Oesophagostomum (in words): efficacious
[19]; 100 mg./kg.
  number of Oesophagostomum recovered at necropsy, individual lamb: 0
  average number of Oesophagostomum remaining: 0
  total number of Oesophagostomum remaining: 0
  mean percentage efficacy against Oesophagostomum: 100%
[19]; 200 mg./kg.
  number of Oesophagostomum recovered at necropsy, individual lamb: 0 and 3
  average number of Oesophagostomum remaining: < 1
  total number of Oesophagostomum remaining: 3
  mean percentage efficacy against Oesophagostomum: 90.6%
[20]; 300 mg./kg. oral
  activity against Strongyloides (egg counts and necropsy): established activity
[20]; 400 mg./kg. oral
  activity against Strongyloides: Activity
[21]; 100 mg. and 200 mg. per kg
  efficacy against Haemonchus (in words): efficacious
[21]; 100 mg./kg.
  number of Haemonchus recovered at necropsy, individual lamb: 2 and 0
  average number of Haemonchus remaining: < 1
  total number of Haemonchus remaining: 2
  mean percentage efficacy against Haemonchus: 99.9%
[21]; 200 mg./kg.
  number of Haemonchus recovered at necropsy, individual lamb: 0 and 1
  average number of Haemonchus remaining: < 1
  total number of Haemonchus remaining: 1
  mean percentage efficacy against Haemonchus: 99.9%
[22]; 100 mg. and 200 mg. per kg
  efficacy against Strongyloides (in words): efficacious
[22]; 100 mg./kg.
  number of Strongyloides recovered at necropsy, individual lamb: 2 and 0 and 11
  average number of Strongyloides remaining: 3
  total number of Strongyloides remaining: 13
  mean percentage efficacy against Strongyloides: 97.9%
[22]; 200 mg./kg.
  number of Strongyloides recovered at necropsy, individual lamb: 0
  average number of Strongyloides remaining: 0
  total number of Strongyloides remaining: 0
  mean percentage efficacy against Strongyloides: 100%
[23]; 100 mg. and 200 mg. per kg
  efficacy against Ostertagia (in words): efficacious
[23]; 100 mg./kg.
  number of Ostertagia recovered at necropsy, individual lamb: 0
  average number of Ostertagia remaining: 0
  total number of Ostertagia remaining: 0
  mean percentage efficacy against Ostertagia: 100%
[23]; 200 mg./kg.
  number of Ostertagia recovered at necropsy, individual lamb: 0
  average number of Ostertagia remaining: 0
  total number of Ostertagia remaining: 0
  mean percentage efficacy against Ostertagia: 100%

## Fc1c(F)c(F)c(C(Cl)=NNc2ccccc2)c(F)c1F [pentafluorobenzoyl chloride phenylhydrazone]
[1]
  insecticidal and miticidal activity: outstanding insecticidal and miticidal agent
